6 compounds from patent US6451804B1, “Heteroalkylamino-substituted bicyclic nitrogen heterocycles” (Syntex (U.S.A.) LLC, priority 1999, dated 2002) can be followed below.

One data set concerns the target T1, p38 MAP kinase (Homo sapiens, UniProt Q16539).
T1 construct: made in house; host or cells: E. coli (co-expressed with SEK-1 and MEKK)
The data set can be described thus: In vitro p38 MAP kinase inhibition assay (transfer of γ-phosphate from γ-33P-ATP to Myelin Basic Protein). The data set is classed as biochemical. The conditions noted are these: phosphorylated recombinant p38 MAP kinase, MBP substrate. As for the experimental part:
This example illustrates a p38 (MAP) kinase in vitro assay useful for evaluating the compounds of the present invention.
The p38 MAP kinase inhibitory activity of compounds of this invention in vitro was determined by measuring the transfer of the γ-phosphate from γ-^33P-ATP by p38 kinase to Myelin Basic Protein (MBP), using a minor modification of the method described in Ahn, et al., J. Biol. Chem. 266:4220-4227 (1991).
The phosphorylated form of the recombinant p38 MAP kinase was co-expressed with SEK-1 and MEKK in E. Coli (see, Khokhlatchev, et al., J. Biol. Chem. 272:11057-11062 (1997)) and then purified by affinity chromatography using a Nickel column.
The phosphorylated p38 MAP kinase was diluted in kinase buffer (20 mM 3-(N-morpholino)propanesulfonic acid, pH 7.2, 25 mM β-glycerol phosphate, 5 mM ethylene glycol-bis(beta-aminoethyl ether)-N,N,N′,N′-tetraacetic acid, 1 mM sodium ortho-vanadate, 1 mM dithiothreitol, 40 mM magnesium chloride). Test compound dissolved in DMSO or only DMSO (control) was added and the samples were incubated for 10 minutes at 30° C. The kinase reaction was initiated by the addition of a substrate cocktail containing MBP and γ-^33P-ATP. After incubating for an additional 20 minutes at […], the reaction was terminated by adding 0.75% phosphoric acid. The phosphorylated MBP was then separated from the residual γ-^33P-ATP using a phosphocellulose membrane (Millipore, Bedfrod, Mass.) and quantitated using a scintillation counter (Packard, Meriden, Conn.).

T1 sequence (Q16539 whole entry): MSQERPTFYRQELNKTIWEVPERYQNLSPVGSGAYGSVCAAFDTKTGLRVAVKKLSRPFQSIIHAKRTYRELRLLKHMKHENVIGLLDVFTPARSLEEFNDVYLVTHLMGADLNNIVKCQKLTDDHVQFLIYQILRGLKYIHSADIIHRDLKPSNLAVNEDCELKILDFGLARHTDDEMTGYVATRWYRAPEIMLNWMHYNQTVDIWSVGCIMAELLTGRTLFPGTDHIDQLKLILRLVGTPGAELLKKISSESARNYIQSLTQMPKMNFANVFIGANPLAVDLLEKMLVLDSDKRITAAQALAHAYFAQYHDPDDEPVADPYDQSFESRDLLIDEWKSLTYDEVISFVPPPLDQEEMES

For `CCOC(=O)N1CCC(Nc2ncc3c(n2)NC(=O)N(c2ccccc2Cl)C3)CC1` [Compound 2-28, 3-(2-chlorophenyl)-7-(1-ethoxycarbonylpiperidin-4-ylamino)-3,4-dihydropyrimido[4,5-d]pyrimidin-2(1H)-one], at p38 MAP kinase, the half-inhibitory concentration (IC50) (commonly the concentration needed to halve the response being measured) is less than 10 µM.

Turning to `CN1C(=O)N(c2ccccc2Cl)Cc2cnc(NCC(C)(C)CN)nc21` [Compound 3-1], the melting point (commonly the temperature of the solid-liquid transition) lay within 183 to 235 °C. The half-inhibitory concentration (IC50) at p38 MAP kinase is less than 10 µM. In the case of `Cc1ccccc1N1Cc2cnc(NCC(C)(C)CN)nc2N(C)C1=O` [Compound 3-3], the half-maximal inhibitory concentration (IC50) on p38 MAP kinase is less than 10 µM. On the same count and under the same terms, with `Cc1ccccc1N1Cc2cnc(NC(C)(C)CO)nc2N(C)C1=O` [Compound 3-12] the figure was less than 10 µM. In turn, `O=C1N(c2ccccc2Cl)Cc2cnc(N[C@H]3CC[C@H](O)CC3)nc2N1CC(F)(F)F` [Compound 3-60, 3-(2-chlorophenyl)-7-(trans-4-hydroxycyclohexylamino)-1-(2,2,2-trifluoroethyl)-3,4-dihydropyrimido[4,5-d]pyrimidin-2(1H)-one] displayed a melting point of 130 to 133.5 °C. Also, the 50% inhibitory concentration (IC50) at p38 MAP kinase was less than 10 µM.

`CS(=O)(=O)N[C@H]1CC[C@H](Nc2ncc3c(n2)NC(=O)N(c2ccccc2Cl)C3)CC1` [Compound 4-28, 3-(2-chlorophenyl)-7-[trans-4-(methanesulfonylamino)cyclohexylamino]-3,4-dihydropyrimido[4,5-d]pyrimidin-2(1H)-one] showed a melting point of 292.8 to 293.2 °C.
